Measurements reported in patent US20220026415A1, “A METHOD FOR SCREENING A THERAPEUTIC AGENT FOR CANCER USING BINDING INHIBITOR OF CYCLIN-DEPENDENT KINASE 1 (CDK1)-CYCLIN B1 AND RETINOIC ACID RECEPTOR RESPONDER 1 (RARRES1) GENE KNOCKOUT ANIMAL MODEL” (NATIONAL CANCER CENTER, priority 2018, published 2022).
Where a SMILES comes first, the peptide text is derived from it. The star is where a group is joined. Cbz = O=C(OCc1ccccc1)*

Experiments:
RARRES1 expression = assay: Restoration of RARRES1 expression by DNA methylation inhibitor, RT-PCR; format: cell-based, human; conditions: for tested cell lines showing restored RARRES1 expression in a dose-dependent manner: 5, 25 and 100 uM for 5 days
Experimental: Total RNA was extracted from human cancer cell lines including prostate cancer, lung cancer, and breast cancer by using a TRIzol reagent (Invitrogen) according to the manufacturer's instructions, and 1 ug of total RNA was converted into cDNA with a Superscript® reverse transcriptase (Invitrogen). Primers used for human DNA were as follows: RARRES1-1-F ([…]), RARRES1-1-R ([…]), RARRES1-2-F ([…]), RARRES1-2-R ([…]), Cyclin B1-F ([…]), Cyclin B1-R ([…]), Actin-F ([…]), and Actin-R ([…]), and the primers respectively yielded PCR products with predicted sizes of 327 bp, 359 bp, 347 bp, and 626 bp. Primers used for mouse DNA were as follows: Rarres1-F([…]), Rarres1-R ([…]), Gapdh-F (TGCACCACCAACTGCTTA), and Gapdh-R (GGATGCAGGGATGATGTTC), and these primers respectively yielded PCR products with predicted sizes of 653 bp and 177 bp.
To determine whether promoter methylation was associated with the silencing of the RARRES1 expression in cancer cells, cells were treated with 5-aza-2′-deoxycytidine (5-aza-2-dC; 5, 25, and 100 uM) as an inhibitor of DNA methylation for 5 days.

CDK1 protein = assay: Amount of CDK1 protein in cells transfected with RARRES1 and CDK1, treated with protein degradation inhibitors; format: cell-based; conditions: cells transfected with RARRES1 along with CDK1
Experimental: […]
In addition, when cells were transfected with RARRES1 along with CDK1 using the method of Example 1-1, the amount of the CDK1 protein was reduced. To examine how a quantitative change in the CDK1 protein was regulated, cells were treated with protein degradation inhibitors.

[1] = tested on: embryonic epithelial cells; assay: Spheroid-formation assay with or without CDK1 inhibitor; format: cell-based, mouse
Experimental: Mouse embryo fibroblasts (MEFs) and mouse embryo epithelial cells (MEEs) were derived from 13.5-day-old embryos as previously described. That is, after removal of the head and internal organs, embryos were rinsed with phosphate buffered saline (PBS), minced, and treated with trypsin/EDTA to obtain single cells. The MEFs was resuspended in DMEM containing 10% FBS, 2 mM L-glutamine, 0.1 mM MEM nonessential amino acids, 55 uM beta-mercaptoethanol, and 100 IU/ml penicillin, and 100 ug/ml streptomycin. Cell media and reagents were obtained from GIBCO (Paisley, England). The MEEs were cultured in a D-MEM/F-12 medium containing 1% FBS, 1 mg of insulin, 1 mg of hydrocortisone, 12.5 μg of EGF, 10 mg of ascorbic acid, 10 mg of transferin, 14.1 mg of phosphoethanolamine, Na selenite, 1 μg of cholera toxin, 6.5 μg of triiodo thyronine, 35 mg of bovine pituitary extract, ethanolamine, 50 IU/ml of penicillin, and 50 ug/ml of streptomycin. The cells were incubated at 37° C. in a 5% CO2-humidified chamber. After disintegration of the embryos, plating was considered passage 0. All experiments were carried out using cells within passage 5 from three different batches. The genotypes of the MEFs and MEEs were confirmed by genotyping PCR. At least three independently generated cell lines per genotype were used.
In spheroid-formation assay, as mentioned above, advanced DMEM/F12 media used for embryonic epithelial cell culture were employed. The cells from the embryo of Rarres1^+/+ and Rarres1^−/− mice were suspended and seeded in […] with or without RO3306, CDK1 inhibitor, in a 24-well plate at a density of 2,000 or 5,000 cells per well. The size and number of spheres formed while adding 300 μl of a medium once three to four days were measured.

Rarres1 KO MEFs = assay: Nocodazole treatment of MEFs, flow cytometry, cell counting and western blotting; format: cell-based, mouse
Experimental: For analysis of cell cycles or sub-G1 DNA contents, cells were immobilized with 80% ice-cold ethanol, and stored at 4° C. The cells were stained with PBS containing 50 ug/ml of propidium iodide (PI) and 100 ug/ml of RNase A at 37° C. for 30 minutes. DNA content was analyzed by FACS Calibur flow cytometry and the results thereof were analyzed using Cellquest software (Becton-Dickinson Immunocytometry Systems, San Diego, Calif.) and Modfit LT 3.3 software. At least 10,000 cells were analyzed per sample.
Growth was examined using MEFs derived from 13.5-day-old embryos. Cells were plated on a 6-well plate at a density of 20,000 cells/well, and then the number of the cells was counted every day from the following day for 5 days. To examine cell survival in response to nocodazole, which is a cell division inhibitor, cells were treated with 50 ng/ml or 100 ng/ml of nocodazole for 48 hours and cultured. Subsequently, the cells were treated with trypsin/EDTA and detached, followed by cell counting.
It was determined whether a mitotic stress-inducing drug such as nocodazole affects Rarres1 KO MEFs. MEF cells were treated with nocodazole (50 ng/ml or 100 ng/ml) or DMSO for 48 hours, and flow cytometry and cell counting according to Example 1-10 were performed thereon.

[2] = some cancer cells (CWR22rv, T47D)

## Nc1ncn([C@H]2C[C@H](O)[C@@H](CO)O2)c(=O)n1 [5-aza-2-dC, 5-aza-2′-deoxycytidine]
RARRES1 expression; Calu3 and HCC70 cells having high mRNA levels of RARRES1
  RARRES1 expression after treatment: failed to have reintroduced RARRES1 expression
RARRES1 expression; JIMT-1 cells
  mRNA level of the RARRES1 gene after treatment: reduced
RARRES1 expression; breast cancer cell lines (8/10)
  tested cell lines showing restored RARRES1 expression in a dose-dependent manner: 80%
RARRES1 expression; lung cancer cell lines (4/5)
  tested cell lines showing restored RARRES1 expression in a dose-dependent manner: 80%
RARRES1 expression; prostate cancer cell lines (4/4)
  tested cell lines showing restored RARRES1 expression in a dose-dependent manner: 100%
RARRES1 expression; [2]
  RARRES1 isoform 1 after treatment: increased
  RARRES1 isoform 2 after treatment: not detected

## CO/C1=C\C(C)=C\[C@@H](C)[C@@H](O)[C@@H](C)C/C(C)=C/C=C/[C@H](OC)[C@@H]([C@@H](C)[C@@H](O)[C@H](C)[C@@]2(O)C[C@@H](O)[C@H](C)[C@@H](C(C)C)O2)OC1=O [BafA1, Bafilomycin A1]
CDK1 protein
  amount of the CDK1 protein, which had been decreased by RARRES1: increased again

## CC(C)C[C@@H](C=O)NC(=O)[C@H](CC(C)C)NC(=O)[C@H](CC(C)C)NC(=O)OCc1ccccc1 [MG132] (Cbz-Leu-Leu-Leu-aldehyde)
CDK1 protein
  amount of the CDK1 protein, which had been decreased by RARRES1: still decreased

## O=C1NC(=NCc2cccs2)S/C1=C\c1ccc2ncccc2c1 [RO3306]
[1]; RO3306-treated versus not treated, cells from Rarres1+/+ and Rarres1-/- embryos
  overall spheroid formation: significantly reduced
[1]; embryonic epithelial cells from Rarres1-deficient mice
  sphere formation under RO3306: formed spheres
[1]; embryonic epithelial cells of the control mice
  sphere formation under RO3306: barely formed spheres

## COC(=O)Nc1nc2ccc(C(=O)c3cccs3)cc2[nH]1 [nocodazole]
Rarres1 KO MEFs; KO cells compared to WT cells, nocodazole treated
  cleavage of PARP and Caspase 3: decreased
Rarres1 KO MEFs; Rarres1-deficient MEFs versus WT MEFs, 50 or 100 ng/ml, 48 hours
  number of the cells after nocodazole treatment: less reduced
Rarres1 KO MEFs; Rarres1-deficient MEFs versus WT MEFs, 50 or 100 ng/ml, 48 hours, dose-dependent
  cell death induced by nocodazole: significantly reduced
